Measured values: patent US5095007A, “Alteration of rate and character of hair growth” (priority 1990, dated 1992)

Key:
[1] = test system: adenylosuccinate synthetase; experiment: Adenylosuccinate synthetase activity in hamster hair follicles after topical treatment; format: in vivo; conditions: 10% solution, twice over a 24 hour period
[2] = test system: adenosine nucleotide contents of hair follicles; experiment: Adenosine nucleotide contents of flank organ hair follicles after topical treatment; format: in vivo, hamster; conditions: 10% in vehicle, three days of daily treatments
Experimental: The effect of the enzyme inhibition, was further shown by measurements of hair follicle nucleotide levels after topical treatment with L-alanosine. A group of eight hamsters was treated topically with L-alanosine (10% in the vehicle above) on one flank organ while the other organ received an equal amount of just the vehicle. After three days of daily treatments, the hair follicles from the flank organs were removed and the adenosine nucleotide contents were determined.

hamster flank organ = experiment: Reduction of hair growth (hair mass) on hamster flank organ after topical application; format: in vivo, Golden Syrian hamster; conditions: for Percent Inhibition of Hair Growth: vs vehicle-treated organ
Text: L-alanosine was mixed with separate portions of the foregoing vehicle to provide specimens containing 0.1, 0.5, 1, 2, and 6% by weight respectively of the inhibitor and the pH was adjusted to pH 7.5 with sodium hydroxide.
Four groups (eight animals in each group) of male intact Golden Syrian hamsters were provided. These animals were considered acceptable models for human beard hair growth in that they display oval shaped flank organs, one on each side, each about 8 mm. in major diameter, which grow thick black and coarse hair similar to human beard hair. These organs produce hair in response to androgens in the hamster. The flank organs of each hamster were depilated by applying a thioglycolat-- based chemical depilatory (Surgex), and to one organ of each animal was applied 10-25 μl. of vehicle alone once a day, while to the other organ of each animal was applied an equal amount of vehicle containing inhibitor. After three weeks of such applications (five days a week), the flank organs were shaved and the amount of recovered hair (hair mass) from each was weighed. The extent of reduction in hair growth by the inhibitor was expressed as the percent decrease in hair mass on the organ treated with inhibitor as compared to the organ treated with vehicle alone. As a control, one group of eight animals had both flank organs of each animal treated with vehicle alone.
A series of compositions was prepared containing various percentages by weight of N-phosphonacetyl-L-aspartic acid (PALA) in the vehicle described in Example 1 above adjusted to pH 4.5, and applied to hamster flank organs under the same conditions as described in Example 1. The reduction in hair growth observed after three weeks was as follows: […]

[3] = test system: pyrimidine nucleotide content of hair follicles; experiment: Pyrimidine nucleotide content of hair follicles after topical treatment; format: in vivo, hamster; conditions: same treatment protocol as nucleotide content in Example 1 (10%, three days daily)
[4] = test system: aspartate transcarbamylase; experiment: Aspartate transcarbamylase activity in hamster hair follicles after topical treatment; format: in vivo; conditions: 10% solution, two treatments over a 24 hour period
[5] = L-alanosine 0.5%, 25 μl, pH 7.5, three weeks
[6] = L-alanosine 1.0%, 25 μl, pH 7.5, three weeks
[7] = L-alanosine 2.0%, 25 μl, pH 7.5, three weeks
[8] = L-alanosine 6.0%, 25 μl, pH 7.5, three weeks
[9] = PALA 2%, 10 μl, pH 4.5, three weeks
[10] = PALA 2%, 25 μl, pH 4.5, three weeks
[11] = PALA 4%, 25 μl, pH 4.5, three weeks
[12] = PALA 6%, 10 μl, pH 4.5, three weeks
[13] = PALA 6%, 25 μl, pH 4.5, three weeks

N[C@@H](CN(O)N=O)C(=O)O [L-alanosine, L-2-amino-3-(N-hydroxy, N-nitrosamino) propionic acid]
inhibition of adenylosuccinate synthetase activity [1]: about 49%
reduction in ADP levels in hair follicles [2]: 40%
reduction in AMP levels in hair follicles [2]: 50%
reduction in ATP levels in hair follicles [2]: 29%
Hamster Flank Organ Hair Mass, Treated Mean (hamster flank organ; L-alanosine 0.1%, 25 μl, pH 7.5, once a day, five days a week, three weeks): 0.68 mg
Percent Inhibition of Hair Growth (hamster flank organ; L-alanosine 0.1%, 25 μl, pH 7.5, three weeks): 18%
Hamster Flank Organ Hair Mass, Treated Mean (hamster flank organ; [5]): 0.67 mg
Percent Inhibition of Hair Growth (hamster flank organ; [5]): 32%
Hamster Flank Organ Hair Mass, Treated Mean (hamster flank organ; [6]): 0.38 mg
Percent Inhibition of Hair Growth (hamster flank organ; [6]): 47%
Hamster Flank Organ Hair Mass, Treated Mean (hamster flank organ; [7]): 0.51 mg
Percent Inhibition of Hair Growth (hamster flank organ; [7]): 61%
Hamster Flank Organ Hair Mass, Treated Mean (hamster flank organ; [8]): 0.07 mg
Percent Inhibition of Hair Growth (hamster flank organ; [8]): 92%
Nature of the hair on the treated organ (hamster flank organ; treated vs untreated organ, Table 1 footnote): more vellous

O=C(O)C[C@H](NC(=O)CP(=O)(O)O)C(=O)O [PALA, N-phosphonacetyl-L-aspartic acid]
inhibition of CDP (hair follicle content) [3]: 19%
inhibition of CTP (hair follicle content) [3]: 60%
inhibition of UDP (hair follicle content) [3]: 25%
inhibition of UTP (hair follicle content) [3]: 50%
reduction of aspartate transcarbamylase activity [4]: 72%
Hamster Flank Organ Hair Mass, Treated Mean (hamster flank organ; [9]): 1.36 mg
Percent Inhibition of Hair Growth (hamster flank organ; [9]): 13%
Hamster Flank Organ Hair Mass, Treated Mean (hamster flank organ; [10]): 1.34 mg
Percent Inhibition of Hair Growth (hamster flank organ; [10]): 19%
Hamster Flank Organ Hair Mass, Treated Mean (hamster flank organ; [11]): 0.85 mg
Percent Inhibition of Hair Growth (hamster flank organ; [11]): 50%
Hamster Flank Organ Hair Mass, Treated Mean (hamster flank organ; [12]): 0.37 mg
Percent Inhibition of Hair Growth (hamster flank organ; [12]): 78%
Hamster Flank Organ Hair Mass, Treated Mean (hamster flank organ; [13]): 0.23 mg
Percent Inhibition of Hair Growth (hamster flank organ; [13]): 87%
